Assay results as given in PubChem BioAssay (NCI).
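Assay format: 96-well plates, 48-hour exposure. Here, GI50 denotes the concentration required for 50% inhibition of growth. The concentration for full growth arrest is given as TGI.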

Columns and labels:
Experiment in all cases: DTP human tumour cell line panel, 48 h
[1] = system: SNB-19 CNS
[2] = system: IGROV1 ovarian
[3] = system: PC-3 prostate
[4] = system: HT29 colon
[5] = system: NCI/ADR-RES ovarian
[6] = system: M14 melanoma
[7] = system: HOP-92 NSCLC
[8] = system: NCI-H460 lung
[9] = system: A549 NSCLC
[10] = system: MALME-3M melanoma
[11] = system: CCRF-CEM leukemia
[12] = system: OVCAR-8 ovarian
[13] = system: SK-OV-3 ovarian
[14] = system: KM12 colon
[15] = system: HCT-116 colon
[16] = system: SN12C renal
[17] = system: MDA-MB-435
[18] = system: SNB-75 CNS

Structure (SMILES) | TGI [1] | TGI [2] | TGI [3] | TGI [4] | TGI [5] | TGI [6] | TGI [7] | TGI [8] | TGI [9] | TGI [10] | TGI [11] | TGI [12] | TGI [13] | TGI [14] | TGI [15] | TGI [16] | TGI [17] | TGI [18] | GI50 [2]
Cc1c2c(n3c(nc4ccccc43)c1C#N)NCC2 | > 10 µM | > 10 µM | > 10 µM | > 10 µM | > 10 µM | > 10 µM | > 10 µM | > 10 µM | > 10 µM | > 10 µM | > 10 µM | > 10 µM | > 10 µM | > 10 µM | > 10 µM | > 10 µM | > 10 µM | > 10 µM | –
COc1cccc2c1C(=O)c1c(O)c3c(c(O)c1C2=O)CC(O)(C(C)=O)CC3OC1OC(COC(C)=O)C(OC(C)=O)C(OC(C)=O)C1OC(C)=O (configuration not stated) | 42.1 µM | 47.5 µM | > 100 µM | > 100 µM | > 100 µM | > 100 µM | 32.2 µM | > 100 µM | > 100 µM | > 100 µM | 0.131 µM | 37.2 µM | > 100 µM | > 100 µM | > 100 µM | > 100 µM | > 100 µM | 27 µM | –
CC1=C(C(=O)NNC(=O)c2ccccc2O)CC(C(=O)NNC(=O)c2ccccc2O)=C(C)N1 | > 100 µM | > 35.4 µM | > 100 µM | > 100 µM | > 51.3 µM | > 76 µM | > 100 µM | > 100 µM | > 100 µM | > 100 µM | > 35.5 µM | > 65.3 µM | > 100 µM | > 100 µM | > 51.5 µM | > 100 µM | > 100 µM | > 100 µM | –
C/C1=C\CC[C@@]2(C)O[C@@H]2C[C@@H]2[C@H](C/C(C)=C/CC1)OC(=O)[C@]21CO1 | > 100 µM | > 100 µM | > 100 µM | > 100 µM | > 100 µM | > 100 µM | > 100 µM | 45.1 µM | > 100 µM | > 100 µM | > 100 µM | > 100 µM | > 100 µM | > 100 µM | > 100 µM | > 100 µM | > 100 µM | > 100 µM | –
O=C(Nc1ccccc1)c1cc2cc(CCl)ccc2oc1=O | > 100 µM | > 100 µM | > 100 µM | > 100 µM | > 100 µM | > 100 µM | > 100 µM | > 100 µM | > 100 µM | > 100 µM | > 100 µM | > 100 µM | > 100 µM | > 100 µM | > 100 µM | > 100 µM | > 100 µM | > 100 µM | –
CCOC(=O)C12CCC(c3c(C)cccc3C)(O1)C(C(=O)OC)=C2C(=O)OC (configuration not stated) | > 10 µM | > 10 µM | > 10 µM | 4.72 µM | > 10 µM | > 9.53 µM | > 10 µM | > 10 µM | > 10 µM | 6.4 µM | > 10 µM | > 10 µM | > 10 µM | > 10 µM | > 10 µM | > 10 µM | 2.27 µM | 9.85 µM | –
CC(=O)OC1CC2C(=O)CC1(C)C2(C)C (configuration not stated) | > 100 µM | > 100 µM | > 100 µM | > 100 µM | > 100 µM | > 100 µM | > 100 µM | > 100 µM | > 100 µM | > 100 µM | > 100 µM | > 100 µM | > 100 µM | > 100 µM | > 100 µM | > 100 µM | > 100 µM | > 100 µM | > 100 µM
O=C(NCCCN1CCN(CCCNC(=O)c2cc(-c3ccccc3)nc3ccccc23)CC1)c1cc(-c2ccccc2)nc2ccccc12 | 33 µM | 27.8 µM | 26 µM | > 39.7 µM | > 72.3 µM | 5.63 µM | 28.5 µM | > 64.7 µM | 48.7 µM | 3.21 µM | > 56.4 µM | 29.7 µM | 40.2 µM | > 58.2 µM | > 100 µM | 43 µM | 14.7 µM | > 52.6 µM | –
CCN(CC)CCC(=O)Nc1ccc2sc3ccccc3c(=O)c2n1 | 53.1 µM | 35.8 µM | 40.9 µM | > 100 µM | 72 µM | 28.1 µM | 0.0992 µM | 61.6 µM | 37 µM | 39.1 µM | 75.6 µM | 62.4 µM | 36.7 µM | 32.1 µM | 29.4 µM | 77.8 µM | 26.4 µM | 21.6 µM | –
Cc1nnc(N)nc1C/C=C/C(C)Sc1ccc(Cl)cc1 (configuration not stated) | > 51 µM | 13.5 µM | 17.8 µM | 43.8 µM | > 60.3 µM | 26 µM | 68.8 µM | 30.3 µM | 58.6 µM | 33.7 µM | 26.4 µM | > 56.5 µM | 21.9 µM | 20.7 µM | 33.8 µM | > 80.6 µM | > 50.8 µM | 19.2 µM | –
O=C(N/N=C\c1ccc(Cl)cc1)Nc1cccc2ccccc12 | 5.64 µM | > 25.8 µM | > 100 µM | > 100 µM | > 100 µM | > 100 µM | 21.2 µM | 10.2 µM | 27 µM | > 24.4 µM | > 31.9 µM | > 40.8 µM | 6.75 µM | > 23 µM | > 23.2 µM | 76 µM | 6.67 µM | 5.62 µM | –
CC(C)(CN1CCCCC1)C(=O)CC(SCCS(=O)(=O)O)c1ccccc1 (configuration not stated) | 54.2 µM | > 100 µM | 77.1 µM | 31.7 µM | 70.6 µM | 26 µM | 25.3 µM | > 100 µM | > 100 µM | 33.3 µM | 32.1 µM | 65 µM | > 100 µM | 44.8 µM | 18.2 µM | 58.6 µM | 29.3 µM | 54.9 µM | –
O=C(OCC1CC(C2(O)CCCCC2)C(=O)O1)c1ccccc1 (configuration not stated) | > 100 µM | > 100 µM | > 100 µM | > 100 µM | > 100 µM | > 100 µM | > 100 µM | > 100 µM | > 100 µM | > 100 µM | > 100 µM | > 100 µM | > 100 µM | > 100 µM | > 100 µM | > 100 µM | > 100 µM | > 100 µM | –
CC(=O)O[C@H]1C(=O)[C@@]2(C)[C@H]([C@H](OC(=O)c3ccccc3)[C@]3(O)C[C@H](OC(=O)[C@H](O)[C@@H](NC(=O)OC(C)(C)C)c4ccco4)C(C)=C1C3(C)C)[C@]1(OC(C)=O)CO[C@@H]1C[C@@H]2O | > 50 µM | > 50 µM | > 50 µM | 0.24 µM | 0.643 µM | 25.2 µM | 43.5 µM | > 19 µM | > 50 µM | > 47 µM | 35.7 µM | > 50 µM | 7.38 µM | > 50 µM | 17.5 µM | 36.3 µM | 2.27 µM | < 0.005 µM | –
Clc1ccc2c(c1)CC1C[N+]3=C(CCCCC3)C1=C2 (configuration not stated) | > 100 µM | > 100 µM | > 100 µM | > 100 µM | > 100 µM | > 100 µM | 95.2 µM | > 100 µM | > 100 µM | > 100 µM | > 100 µM | > 100 µM | > 100 µM | > 100 µM | > 100 µM | > 100 µM | > 100 µM | 4.56 µM | –
O=C(/C=C/c1ccc(O)c(O)c1)c1ccc(O)cc1O | 43.9 µM | 35.1 µM | 52.6 µM | 33.4 µM | > 84.1 µM | 34.7 µM | 33.3 µM | 36.3 µM | 72.3 µM | 28.7 µM | > 71.7 µM | 51 µM | 38 µM | 24.3 µM | 28 µM | 43.9 µM | 29.1 µM | 25.2 µM | –
CC(C)NC(=O)OCc1c(COC(=O)NC(C)C)c(-c2cc[n+](COC(=O)Cc3ccccc3)cc2)n2c1CCC2 | > 100 µM | > 100 µM | > 100 µM | > 100 µM | > 100 µM | > 100 µM | > 100 µM | > 100 µM | > 100 µM | > 100 µM | > 100 µM | > 100 µM | > 100 µM | > 100 µM | > 100 µM | > 100 µM | > 100 µM | > 100 µM | –
CC(=O)c1sc2c(c1OC(=O)c1ccccc1)c(=O)n(-c1ccccc1)c(=S)n2-c1ccccc1 | > 47.8 µM | 54.5 µM | 14.9 µM | 12.9 µM | 28.7 µM | 14.3 µM | 5.94 µM | > 59.5 µM | > 100 µM | 5.92 µM | 5.83 µM | > 28.3 µM | > 49.9 µM | 92.3 µM | 34.2 µM | > 42.5 µM | 28.9 µM | 28.6 µM | –
CCCCCCc1cc2cc(-c3cn4ccccc4n3)c(=O)oc2cc1O | 26 µM | 27.7 µM | 32.7 µM | > 100 µM | 21.4 µM | 16.1 µM | 32.6 µM | 36.1 µM | 31.2 µM | 4.74 µM | > 100 µM | 28.5 µM | 26.5 µM | > 67.9 µM | 16.9 µM | 17.5 µM | 20.6 µM | 8.81 µM | –
CC(C)(Cl)C(Cl)CC/C(CBr)=C(\Cl)CBr (configuration not stated) | 29.2 µM | 3.66 µM | 8.56 µM | 25 µM | 7.9 µM | 3.22 µM | 3.63 µM | 8.21 µM | 30.3 µM | 4.83 µM | 0.325 µM | 3.92 µM | 13.5 µM | 6.08 µM | 5.89 µM | 6.15 µM | 5.34 µM | 4.85 µM | –
O=C(/C=C/c1ccc(Cl)cc1)c1nc2ccccc2[nH]1 | > 100 µM | > 100 µM | > 100 µM | 63.4 µM | > 100 µM | > 100 µM | > 100 µM | > 100 µM | > 100 µM | > 100 µM | 16.6 µM | > 100 µM | > 100 µM | 13.3 µM | 36.3 µM | > 100 µM | 36.2 µM | 43.8 µM | –
Cn1c2ccccc2c(=NNc2ccc(S(=O)(=O)N=C(N)N)cc2)c2ccccc21 | 22.6 µM | 28.5 µM | 21.3 µM | 14.5 µM | 71.1 µM | 30.1 µM | 36.4 µM | 14 µM | 26.7 µM | 20.7 µM | 31.9 µM | 26.4 µM | 21.3 µM | 20.6 µM | 17 µM | 21.9 µM | 23.7 µM | 25.4 µM | –
